Source: patent publication US20100204219A1, “AROMATIC 1,4-DI-CARBOXYLAMIDES AND THEIR USE” (priority 2006, published 2010)

Tests used:
Assay type in all cases: binding
Conditions in all cases: Example 1
[1] = target: T1, βCat-ECad (E-Cadherin-βCatenin interaction) (Homo sapiens, UniProt P35222); assay: ELISA based protein-protein interaction assay, βCat-ECad
T1 sequence (P35222 134-671 limits assumed): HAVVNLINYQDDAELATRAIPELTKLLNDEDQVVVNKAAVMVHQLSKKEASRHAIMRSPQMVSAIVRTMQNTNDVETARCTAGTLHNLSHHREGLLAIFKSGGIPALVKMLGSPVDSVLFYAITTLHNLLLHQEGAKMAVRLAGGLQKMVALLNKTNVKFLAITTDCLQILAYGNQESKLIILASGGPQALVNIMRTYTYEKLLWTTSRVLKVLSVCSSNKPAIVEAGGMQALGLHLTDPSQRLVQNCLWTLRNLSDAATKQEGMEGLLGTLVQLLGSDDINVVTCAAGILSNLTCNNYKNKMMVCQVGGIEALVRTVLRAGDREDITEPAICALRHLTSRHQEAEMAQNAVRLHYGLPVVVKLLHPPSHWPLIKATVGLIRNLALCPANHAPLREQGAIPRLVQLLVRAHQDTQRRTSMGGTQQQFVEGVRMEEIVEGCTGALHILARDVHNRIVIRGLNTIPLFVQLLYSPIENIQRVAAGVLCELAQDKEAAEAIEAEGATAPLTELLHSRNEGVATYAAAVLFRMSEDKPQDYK
Description: (§1) cDNAs including the binding domains of Lgs and beta-Catenin were fused down-stream of glutathione-S-transferase (GST) cDNA in pGEX-4T inducible bacterial expression vector (Pharmacia). Similar recombinant DNA constructs were generated in the pET-32a(+) vector (Novagen) for expression of fusion protein containing the Thioredoxine-6His tag at their N-terminus. Fusion proteins were produced in BL21 bacteria (e.g. Stratagene) following manufacturer's recommendation.
(§2) To isolate the produced fusions protein, bacteria were ground in aluminum oxide (Sigma, A2039) and the resulting powder extracted in lysis buffer (140 mM NaCl, 10 mM Na2HPO4, 1.8 mM KH2PO4, 2.7 mM KCl, 1 mM EDTA, 1% Triton-X-100, 1 mM DTT and protease inhibitors) under rotation for 30 minutes. Supernatants were cleared by centrifugation then filtered on a 0.45 μm membrane before protein purification. For GST tagged protein, lysate were processed on glutathione agarose beads following manufacturer's recommendation (Amersham Pharmacia) and purified proteins eluted in 50 mM Tris-Cl, 10 mM reduced glutathione pH8.0. For thioredoxine-6His fusions, tagged proteins were purified from the lysate on a nickel chelating column (e.g. Hitrap chelating, G.E. Healthcare) using an HPLC system (e.g. Akta Prime, G.E. Healthcare) and eluted under increasing concentration of imidazole. The purified proteins solution was dialyzed against PBS before use. The quality of the preparations was checked by SDS-gel electrophoresis by standard methods well known by persons skilled in the art.
(§3) Compound preparation: Compounds can be prepared as 25 mM stock in DMSO and diluted in DMSO to reach final test concentrations of up to 100 μM. Final DMSO concentration in the assay is 5%.
(§4) 100 μl of GST fusion protein (e.g. GST-βCatenin) diluted to the appropriate concentration in phosphate buffer saline are added per well to a 96 well plate with high protein binding capacity (e.g. Nunc Maxisorp) and placed at 4° C. overnight. The following day the liquid in the wells is discarded and 150 μl 3% bovine serum albumin (BSA) in PBS are added to each well and incubated at room temperature for 2 hours under moderate shaking. This solution is then discarded and each well washed twice with 200 μl PBS. After carefully discarding the second wash, a mixture of 5 μl compound dilution and 95 μl 6His fusion protein (e.g. 6His-Bcl9) diluted to the appropriate concentration in PBS is added to each well. The plate is then incubated for 1 hour at room temperature under moderate shaking. This protein solution is then discarded and the wells washed 3 times with 200 μl 0.1% Tween-20 solution in PBS. After carefully discarding the final wash, 100 μl of anti 6His antibody conjugated to the horse-radish peroxidase (e.g. Roche antibody 11965085001) at the appropriate dilution in 1% BSA in PBS is added to the wells and the plate incubated for 1 hour at room temperature under moderate shaking. This solution is then discarded and the wells washed 3 times with 200 μl 0.1% Tween-20 solution in PBS. After carefully discarding the final wash, 100 μl of HRP substrate […] (TMB) in solution (e.g. Sigma T0440) is added to the wells and the plate incubated up to 30 minutes in the dark at room temperature. The reaction is stopped by addition of 100 μl of 2N HCl to each well and the optical density is measured at 450 nm and 630 nm.

[2] = target: T2, βCat-TCF4 (Tcf-4-βCatenin interaction) (Homo sapiens, UniProt P35222); assay: ELISA based protein-protein interaction assay, βCat-TCF4
T2 sequence (P35222 141-664 limits assumed): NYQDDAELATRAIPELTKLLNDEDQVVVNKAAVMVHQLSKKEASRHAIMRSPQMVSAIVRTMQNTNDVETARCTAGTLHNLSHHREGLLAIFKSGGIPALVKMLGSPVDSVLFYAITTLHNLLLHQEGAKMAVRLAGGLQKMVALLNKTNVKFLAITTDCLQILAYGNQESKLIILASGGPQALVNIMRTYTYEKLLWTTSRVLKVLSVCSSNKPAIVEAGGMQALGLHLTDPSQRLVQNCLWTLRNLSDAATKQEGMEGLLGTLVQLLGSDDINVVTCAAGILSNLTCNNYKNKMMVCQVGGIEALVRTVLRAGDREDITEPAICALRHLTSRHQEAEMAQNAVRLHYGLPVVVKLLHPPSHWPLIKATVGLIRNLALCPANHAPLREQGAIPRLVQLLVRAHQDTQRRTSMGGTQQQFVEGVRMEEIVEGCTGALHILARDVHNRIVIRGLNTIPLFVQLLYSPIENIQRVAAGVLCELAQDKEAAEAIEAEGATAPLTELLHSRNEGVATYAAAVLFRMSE
Description: as §1, §2, §3, §4

[3] = target: T3, βCat-BCL9 (beta-Catenin/BCL9-BCL9L interaction) (Homo sapiens, UniProt P35222); assay: ELISA based protein-protein interaction assay, βCat-BCL9
T3 sequence (P35222 1-781): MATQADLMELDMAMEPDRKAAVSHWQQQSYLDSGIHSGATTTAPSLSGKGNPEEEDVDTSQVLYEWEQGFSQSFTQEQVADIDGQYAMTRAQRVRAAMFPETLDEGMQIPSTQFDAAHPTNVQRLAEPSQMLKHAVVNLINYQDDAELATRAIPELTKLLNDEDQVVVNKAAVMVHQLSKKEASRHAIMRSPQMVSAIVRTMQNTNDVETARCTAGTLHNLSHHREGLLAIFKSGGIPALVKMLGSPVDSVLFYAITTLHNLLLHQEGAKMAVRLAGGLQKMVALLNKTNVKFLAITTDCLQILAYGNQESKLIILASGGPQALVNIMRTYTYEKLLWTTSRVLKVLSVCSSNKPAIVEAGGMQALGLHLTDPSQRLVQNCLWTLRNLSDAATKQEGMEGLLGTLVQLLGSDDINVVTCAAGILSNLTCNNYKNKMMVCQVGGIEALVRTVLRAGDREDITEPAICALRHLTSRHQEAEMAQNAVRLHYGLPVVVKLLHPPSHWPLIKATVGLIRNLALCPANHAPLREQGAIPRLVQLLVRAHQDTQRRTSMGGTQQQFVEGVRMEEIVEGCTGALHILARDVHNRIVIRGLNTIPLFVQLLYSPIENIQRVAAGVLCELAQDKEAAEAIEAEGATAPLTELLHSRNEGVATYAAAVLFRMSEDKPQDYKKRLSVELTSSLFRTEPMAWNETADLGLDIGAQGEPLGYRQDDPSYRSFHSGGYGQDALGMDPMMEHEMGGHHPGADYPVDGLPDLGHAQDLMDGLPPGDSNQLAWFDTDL
Description: as §1, §2, §3, §4

Compound | IC50 [1] [µM] | IC50 [2] [µM] | IC50 [3] [µM]
CCCC(=O)Nc1ccc(-c2cnc(-c3ccc(NC(=O)CCC)cc3)nc2)cc1 [TGC0011566] | > 100 | > 100 | 68
COC(=O)c1ccc(NC(=O)c2ccc(C(=O)Nc3ccc(C(=O)OC)cc3Cl)nc2)c(Cl)c1 [TGC0011605] | 21 | 22 | > 50
O=C(Nc1ccc2oc(=O)ccc2c1)c1ccc(C(=O)Nc2ccc3oc(=O)ccc3c2)cc1 [TGC0012296] | > 10 | > 10 | 3
COC(=O)c1ccc(NC(=O)c2cc(OC)c(C(=O)Nc3ccc(C(=O)OC)cc3)cc2OC)cc1 [TGC0012302] | > 100 | > 100 | 94
N#Cc1ccc(NC(=O)c2ccc(C(=O)Nc3ccc(C#N)cc3)cc2)cc1 [TGC0012303] | > 10 | > 10 | 5
